Results taken from the supplement of paper PMC10307832.

Columns and labels:
Test in all cases: relative viability (nuclei count vs DMSO), 5 days (fraction); higher = more cells survive
VE-821 + Luminespib = compound: CS(=O)(=O)c1ccc(-c2cnc(N)c(C(=O)Nc3ccccc3)n2)cc1 [VE-821] + CCNC(=O)c1noc(-c2cc(C(C)C)c(O)cc2O)c1-c1ccc(CN2CCOCC2)cc1 [Luminespib] (partner 0.01 µM)
Method in brief: (§1)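 Relative viability was taken as the ratio of nuclei in treated wells to nuclei in vehicle wells. Lung cancer cell lines in 1536-well plates received compounds by pin tool one day after seeding, either one drug alone or a fixed anchor-drug dose plus five library-drug doses (not always all listed) in √10 steps. Nuclei were counted on 4× images after 5 days of treatment, and values are medians of duplicate plates.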

VE-821 + Crizotinib = compound: CS(=O)(=O)c1ccc(-c2cnc(N)c(C(=O)Nc3ccccc3)n2)cc1 [VE-821] + C[C@@H](Oc1cc(-c2cnn(C3CCNCC3)c2)cnc1N)c1c(Cl)ccc(F)c1Cl [Crizotinib] (partner 1 µM)
Method in brief: as §1

VE-821 + AZD7762 = compound: CS(=O)(=O)c1ccc(-c2cnc(N)c(C(=O)Nc3ccccc3)n2)cc1 [VE-821] + NC(=O)Nc1cc(-c2cccc(F)c2)sc1C(=O)N[C@H]1CCCNC1 [AZD7762] (partner 0.2 µM)
Method in brief: as §1

Vismodegib + Lapatinib = compound: CS(=O)(=O)c1ccc(C(=O)Nc2ccc(Cl)c(-c3ccccn3)c2)c(Cl)c1 [Vismodegib] + CS(=O)(=O)CCNCc1ccc(-c2ccc3ncnc(Nc4ccc(OCc5cccc(F)c5)c(Cl)c4)c3c2)o1 [Lapatinib] (partner 2 µM)
Method in brief: as §1

Cell Line	relative viability (VE-821 + Luminespib; first compound 0.08 µM)	relative viability (VE-821 + Luminespib; first compound 0.253 µM)	relative viability (VE-821 + Luminespib; first compound 0.8 µM)	relative viability (VE-821 + Luminespib; first compound 2.53 µM)	relative viability (VE-821 + Luminespib; first compound 8 µM)	relative viability (VE-821 + Crizotinib; first compound 0.08 µM)	relative viability (VE-821 + Crizotinib; first compound 0.253 µM)	relative viability (VE-821 + Crizotinib; first compound 0.8 µM)	relative viability (VE-821 + Crizotinib; first compound 2.53 µM)	relative viability (VE-821 + Crizotinib; first compound 8 µM)	relative viability (VE-821 + AZD7762; first compound 0.08 µM)	relative viability (VE-821 + AZD7762; first compound 0.253 µM)	relative viability (VE-821 + AZD7762; first compound 0.8 µM)	relative viability (VE-821 + AZD7762; first compound 2.53 µM)	relative viability (VE-821 + AZD7762; first compound 8 µM)	relative viability (Vismodegib + Lapatinib; first compound 0.08 µM)	relative viability (Vismodegib + Lapatinib; first compound 0.253 µM)	relative viability (Vismodegib + Lapatinib; first compound 0.8 µM)	relative viability (Vismodegib + Lapatinib; first compound 2.53 µM)	relative viability (Vismodegib + Lapatinib; first compound 8 µM)
LU99A	0.274	0.261	0.241	0.199	0.194	0.628	0.564	0.532	0.476	0.325	0.372	0.307	0.208	0.195	0.102	0.928	1.04	1.04	1.04	0.979
EMC-BAC-2	1.36	1.15	1.09	1.11	0.931	0.899	0.763	0.737	0.731	0.651	1.15	1.02	1.12	1.19	0.587	0.891	0.857	0.839	0.933	0.9
NCI-H1734	0.199	0.197	0.208	0.165	0.193	0.827	0.649	0.585	0.726	0.541	0.4	0.428	0.334	0.334	0.184	1.04	1.02	0.96	0.957	1
RERF-LC-KJ	1.31	1.06	1.06	1.18	0.931	0.839	0.806	0.775	0.701	0.693	0.994	0.975	0.974	1.03	0.688	0.902	0.848	0.762	0.817	0.826
NCI-H1437	1.19	1.15	1.06	1.19	0.878	1.1	0.906	0.864	1.01	0.823	1.13	1.12	0.956	1.11	0.514	0.741	0.791	0.783	0.816	0.762
NCI-H1915	0.816	0.752	0.698	0.726	0.525	0.892	0.856	0.883	0.874	0.846	0.7	0.618	0.594	0.537	0.321	0.936	0.975	0.995	0.901	0.978
NCI-H1651	0.907	0.819	0.63	1.16	0.679	0.844	0.914	0.853	0.837	0.872	0.457	0.386	0.4	0.463	0.366	0.869	0.867	0.852	0.83	0.89
NCI-H1944	0.835	0.698	0.421	0.803	0.416	1.25	1.05	0.956	1.14	0.696	0.527	0.402	0.296	0.277	0.121	0.925	0.746	0.801	0.79	0.972
NCI-H1792	0.462	0.524	0.367	0.506	0.359	0.831	0.99	0.947	1.01	0.949	0.665	0.432	0.328	0.196	0.135	0.851	0.97	0.872	0.79	0.878
HCC-44	1.34	0.97	0.908	1.14	0.807	0.846	0.779	0.847	1.03	0.923	0.94	0.944	1.07	0.964	0.914	0.998	1.02	0.965	1.04	0.991
NCI-H358	0.62	0.307	0.334	0.537	1.49	0.67	0.636	0.501	0.588	0.451	0.627	0.603	0.447	0.41	0.293	0.471	0.505	0.422	0.518	0.461
NCI-H596	0.978	1.09	1	1.03	0.738	0.977	1.03	0.904	1.12	0.934	1.03	0.918	0.915	0.961	0.787	0.983	1.07	0.941	1.1	1.09
201T	1.06	1.03	1.06	1.06	0.934	1.04	1.03	1.02	1.08	0.979	0.67	0.578	0.585	0.648	0.46	1.05	0.998	0.946	1.04	1.02
HOP-62	0.966	0.822	0.981	0.694	0.596	0.955	0.885	0.754	1.03	0.902	0.906	0.616	0.406	0.392	0.19	0.981	0.891	0.934	1.04	0.926
NCI-H1975	0.213	0.197	0.26	0.193	0.193	1.02	0.944	0.777	0.758	0.652	0.75	0.69	0.667	0.604	0.462	0.848	0.819	0.966	0.803	0.946
NCI-H1755	0.514	0.344	0.427	0.468	0.201	0.969	0.841	0.69	0.835	0.722	0.434	0.368	0.38	0.323	0.175	1	1	1.06	1.02	1.04
EKVX	0.96	0.77	0.763	0.939	0.815	1.25	0.93	0.849	0.958	0.878	0.754	0.638	0.696	0.744	0.424	0.21	0.223	0.164	0.243	0.197

Cell Line	relative viability (VE-821 + Luminespib; first compound 0.08 µM)	relative viability (VE-821 + Luminespib; first compound 0.253 µM)	relative viability (VE-821 + Luminespib; first compound 0.8 µM)	relative viability (VE-821 + Luminespib; first compound 2.53 µM)	relative viability (VE-821 + Luminespib; first compound 8 µM)	relative viability (VE-821 + Crizotinib; first compound 0.08 µM)	relative viability (VE-821 + Crizotinib; first compound 0.253 µM)	relative viability (VE-821 + Crizotinib; first compound 0.8 µM)	relative viability (VE-821 + Crizotinib; first compound 2.53 µM)	relative viability (VE-821 + Crizotinib; first compound 8 µM)	relative viability (VE-821 + AZD7762; first compound 0.08 µM)	relative viability (VE-821 + AZD7762; first compound 0.253 µM)	relative viability (VE-821 + AZD7762; first compound 0.8 µM)	relative viability (VE-821 + AZD7762; first compound 2.53 µM)	relative viability (VE-821 + AZD7762; first compound 8 µM)	relative viability (Vismodegib + Lapatinib; first compound 0.08 µM)	relative viability (Vismodegib + Lapatinib; first compound 0.253 µM)	relative viability (Vismodegib + Lapatinib; first compound 0.8 µM)	relative viability (Vismodegib + Lapatinib; first compound 2.53 µM)	relative viability (Vismodegib + Lapatinib; first compound 8 µM)
LCLC-97TM1	0.821	0.795	0.952	0.993	0.709	0.537	0.381	0.413	0.632	0.174	0.162	0.137	0.204	0.116	0.133			0.663		1.03
NCI-H2085	0.439	0.457	0.385	0.411	0.309	1.02	0.755	0.824	0.954	0.755	0.952	0.843	0.366		0.271	0.764	0.809	0.71	0.751	0.81
BEN	0.414	0.374	0.376	0.344	0.322	0.952	0.847	0.688	0.835	0.796	0.651	0.62	0.675	0.505	0.396	0.77	0.718	0.778	0.844	0.733
HARA	0.956	0.836	0.579	0.695	0.448	1.36	1.07	1.06	1.07	0.903	0.256	0.315	0.145	0.158	0.249	0.858	0.713	0.662	0.797	0.634
PC-14	0.173	0.19	0.123	0.241	0.12	1.06	0.846	0.856	0.916	0.877	0.362	0.232	0.315	0.338	0.187	0.273	0.338	0.29	0.337	0.337
NCI-H1355	0.71	0.665	0.643	0.597	0.409	1.22	1.11	0.993	1.04	0.768	0.773	0.621	0.499	0.539	0.195	0.93	0.923	0.844	0.951	0.957
NCI-H460	0.0302	0.0482	0.0362	0.0342	0.0308	1.5	0.818	0.588	0.359	0.186	0.568	0.411	0.217	0.117	0.0688	0.903	0.887	1.2	0.823	1.03
NCI-H2126	0.908	0.826	0.807	0.782	0.469	1.02	0.954	0.954	0.965	0.859	1.07	1.05	0.987	0.928	0.615	0.725	0.746	0.701	0.616	0.729
H3255	0.903	0.782	0.78	0.915	0.973	1.05	0.981	0.761	1.03	0.847	0.96	0.927	0.913	0.932	0.649	0.244	0.24	0.239	0.268	0.239
NCI-H2347	0.399	0.418	0.238	0.505	0.582	0.723	0.794	0.684	0.983	0.713	0.703	0.746	0.42	0.698	0.531	0.962	0.989	0.901	0.808	0.938
CAL-12T	0.655	0.363	0.4	0.327	0.137	0.798	0.674	0.537	0.369	0.316	0.568	0.514	0.512	0.352	0.239		0.723	0.578	0.562	0.75
HCC-827	0.599	0.686	0.277	0.696	0.489	0.989	1.01	0.94	1.02	0.898	0.178	0.194	0.169	0.18	0.189	0.162	0.163	0.185	0.192	0.214
A-427	1.08	1	0.69	0.745	0.3	0.907	0.821	0.785	0.811	0.384	0.767	0.599	0.417	0.362	0.327	1.09	1.04	1.01	0.977	1.13
NCI-H650	0.986	0.94	0.662	0.883	0.798	0.969	0.969	0.675	0.889	0.642	0.873	0.954	0.992	0.836	1.04	0.967	0.695	0.623	0.841	0.899
NCI-H727	0.317	0.342	0.368	0.346	0.353	0.866	0.804	0.898	0.739	0.394	0.512	0.495	0.411	0.382	0.41	0.814	0.653	0.585	0.826	0.874
ABC-1	0.614	0.401	0.469	0.49	0.328	1.18	1.1	0.904	0.777	0.58	0.86	0.767	0.94	0.714	0.628		1.17	1.14	1.02	1.15
